Laboratory results published in PubChem BioAssay AID1918948 (Molecular Pharmacology Branch, DTP, NCI, 2023).
“And” between values parts separate entries of the source, which are not always exact repeats. Equal entries are not always repeated. Values belong to the compound of their own block, whether it stands above or below them.

Test system: K-562 leukemia growth, % test/control
Assay: Anticancer human tumor K-562 cell line growth inhibition;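 for viability, T/C: 100% = DMSO vehicle wells and lower values mean fewer viable cells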
Conditions: spheroids with HUVEC and MSC; for viability, T/C: stronger effect = lower value
Procedure, shortened: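 Complex spheroids of tumor cells with HUVEC and human MSCs, exposed to iadademstat combined with other agents. Each agent tested in half-log steps from near clinical Cmax (else 10 microM top), DMSO ≤0.25%.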

[1] = curve of first compound, second compound 0.1 µM
[2] = curve of first compound, second compound 0.316 µM
[3] = curve of first compound, second compound 1 µM
[4] = curve of first compound, second compound 3.16 µM
[5] = curve of first compound, second compound 10 µM
[6] = second compound 0.1 µM, first compound 0.0316 µM
[7] = second compound 0.1 µM, first compound 0.1 µM
[8] = second compound 0.1 µM, first compound 0.316 µM
[9] = second compound 0.1 µM, first compound 1 µM
[10] = second compound 0.1 µM, first compound 3.16 µM
[11] = second compound 0.1 µM, first compound 10 µM
[12] = second compound 0.316 µM, first compound 0.0316 µM
[13] = second compound 0.316 µM, first compound 0.1 µM
[14] = second compound 0.316 µM, first compound 0.316 µM
[15] = second compound 0.316 µM, first compound 1 µM
[16] = second compound 0.316 µM, first compound 3.16 µM
[17] = second compound 0.316 µM, first compound 10 µM
[18] = second compound 1 µM, first compound 0.0316 µM
[19] = second compound 1 µM, first compound 0.1 µM
[20] = second compound 1 µM, first compound 0.316 µM
[21] = second compound 1 µM, first compound 1 µM
[22] = second compound 1 µM, first compound 3.16 µM
[23] = second compound 1 µM, first compound 10 µM
[24] = second compound 3.16 µM, first compound 0.0316 µM
[25] = second compound 3.16 µM, first compound 0.1 µM
[26] = second compound 3.16 µM, first compound 0.316 µM
[27] = second compound 3.16 µM, first compound 1 µM
[28] = second compound 3.16 µM, first compound 3.16 µM
[29] = second compound 3.16 µM, first compound 10 µM
[30] = second compound 10 µM, first compound 0.0316 µM
[31] = second compound 10 µM, first compound 0.1 µM
[32] = second compound 10 µM, first compound 0.316 µM
[33] = second compound 10 µM, first compound 1 µM
[34] = second compound 10 µM, first compound 3.16 µM
[35] = second compound 10 µM, first compound 10 µM

SMILES: CCN(c1cc(-c2ccc(CN3CCOCC3)cc2)cc(C(=O)NCc2c(C)cc(C)[nH]c2=O)c1C)C1CCOCC1 + NC1CC1c1ccc(-c2cccc(O)c2)cc1
IC50 [1]: 2040 nM
IC50 [2]: 1940 nM
IC50 [3]: 1790 nM
IC50 [4]: 1650 nM
IC50 [5]: 904 nM
viability, T/C (second compound 0.1 µM, first compound 0.00949 µM): 116%
viability, T/C (second compound 0.1 µM, first compound 0.03 µM): 117%
viability, T/C (second compound 0.1 µM, first compound 0.0949 µM): 116%
viability, T/C (second compound 0.1 µM, first compound 0.3 µM): 110%
viability, T/C (second compound 0.1 µM, first compound 0.949 µM): 82.9%
viability, T/C (second compound 0.1 µM, first compound 3 µM): 33.5%
viability, T/C (second compound 0.316 µM, first compound 0.00949 µM): 115%
viability, T/C (second compound 0.316 µM, first compound 0.03 µM): 117%
viability, T/C (second compound 0.316 µM, first compound 0.0949 µM): 115%
viability, T/C (second compound 0.316 µM, first compound 0.3 µM): 108%
viability, T/C (second compound 0.316 µM, first compound 0.949 µM): 80.5%
viability, T/C (second compound 0.316 µM, first compound 3 µM): 31.6%
viability, T/C (second compound 1 µM, first compound 0.00949 µM): 108%
viability, T/C (second compound 1 µM, first compound 0.03 µM): 111%
viability, T/C (second compound 1 µM, first compound 0.0949 µM): 118%
viability, T/C (second compound 1 µM, first compound 0.3 µM): 110%
viability, T/C (second compound 1 µM, first compound 0.949 µM): 75.9%
viability, T/C (second compound 1 µM, first compound 3 µM): 28.9%
viability, T/C (second compound 3.16 µM, first compound 0.00949 µM): 109%
viability, T/C (second compound 3.16 µM, first compound 0.03 µM): 111%
viability, T/C (second compound 3.16 µM, first compound 0.0949 µM): 114%
viability, T/C (second compound 3.16 µM, first compound 0.3 µM): 103%
viability, T/C (second compound 3.16 µM, first compound 0.949 µM): 70.8%
viability, T/C (second compound 3.16 µM, first compound 3 µM): 27.7%
viability, T/C (second compound 10 µM, first compound 0.00949 µM): 105%
viability, T/C (second compound 10 µM, first compound 0.03 µM): 109%
viability, T/C (second compound 10 µM, first compound 0.0949 µM): 109%
viability, T/C (second compound 10 µM, first compound 0.3 µM): 92.2%
viability, T/C (second compound 10 µM, first compound 0.949 µM): 48.5%
viability, T/C (second compound 10 µM, first compound 3 µM): 20.1%

SMILES: O=C(c1cc(Cc2n[nH]c(=O)c3ccccc23)ccc1F)N1CCN(C(=O)C2CC2)CC1 + NC1CC1c1ccc(-c2cccc(O)c2)cc1
IC50 [1]: 9600 nM
IC50 [2]: 9550 nM
IC50 [3]: > 10000 nM
IC50 [4]: > 10000 nM
IC50 [5]: 8390 nM
viability, T/C [6]: 111%
viability, T/C [7]: 108%
viability, T/C [8]: 108%
viability, T/C [9]: 106%
viability, T/C [10]: 94.3%
viability, T/C [11]: 48.4%
viability, T/C [12]: 107%
viability, T/C [13]: 103%
viability, T/C [14]: 102%
viability, T/C [15]: 101%
viability, T/C [16]: 90.2%
viability, T/C [17]: 47.9%
viability, T/C [18]: 98%
viability, T/C [19]: 100%
viability, T/C [20]: 102%
viability, T/C [21]: 98.8%
viability, T/C [22]: 89.9%
viability, T/C [23]: 50.1%
viability, T/C [24]: 104%
viability, T/C [25]: 101%
viability, T/C [26]: 100%
viability, T/C [27]: 96.9%
viability, T/C [28]: 87.8%
viability, T/C [29]: 51.2%
viability, T/C [30]: 100%
viability, T/C [31]: 99.8%
viability, T/C [32]: 101%
viability, T/C [33]: 96%
viability, T/C [34]: 79.2%
viability, T/C [35]: 44.7%

SMILES: COc1ccc([C@@H](O)c2cc(-c3ncnc4cc(N5CCOCC5)ccc34)c(F)cc2Cl)nn1 + NC1CCC(NC2CC2c2ccccc2)CC1
IC50 [1]: 9230 nM
IC50 [2]: 9900 nM
IC50 [3]: > 10000 nM
IC50 [4]: 9830 nM
IC50 [5]: 8180 nM
viability, T/C [6]: 100%
viability, T/C [7]: 100%
viability, T/C [8]: 101%
viability, T/C [9]: 103%
viability, T/C [10]: 96.6%
viability, T/C [11]: 46.5%
viability, T/C [12]: 101%
viability, T/C [13]: 101%
viability, T/C [14]: 104%
viability, T/C [15]: 106%
viability, T/C [16]: 98.2%
viability, T/C [17]: 49.5%
viability, T/C [18]: 105%
viability, T/C [19]: 103%
viability, T/C [20]: 105%
viability, T/C [21]: 105%
viability, T/C [22]: 98.2%
viability, T/C [23]: 51.8%
viability, T/C [24]: 101%
viability, T/C [25]: 102%
viability, T/C [26]: 103%
viability, T/C [27]: 104%
viability, T/C [28]: 97.4%
viability, T/C [29]: 49.2%
viability, T/C [30]: 99.5%
viability, T/C [31]: 101%
viability, T/C [32]: 101%
viability, T/C [33]: 98.2%
viability, T/C [34]: 91.8%
viability, T/C [35]: 41%

The next lines start with results.

IC50 (curve of compound): 185 nM and 106 nM
SMILES: Nc1ncn(C2CC(O)C(CO)S2)c(=O)n1 (configuration not stated)
viability, T/C (compound 0.000949 µM): 111% and 100%
viability, T/C (compound 0.003 µM): 109% and 106%
viability, T/C (compound 0.00949 µM): 109% and 105%
viability, T/C (compound 0.03 µM): 94.4% and 87.5%
viability, T/C (compound 0.0949 µM): 67.2% and 53.8%
viability, T/C (compound 0.3 µM): 37.7% and 19.5%

IC50 (curve of compound): 9470 nM and > 10000 nM
SMILES: O=C(c1cc(Cc2n[nH]c(=O)c3ccccc23)ccc1F)N1CCN(C(=O)C2CC2)CC1
viability, T/C (compound 0.0316 µM): 97% and 101%
viability, T/C (compound 0.1 µM): 99.8% and 101%
viability, T/C (compound 0.316 µM): 99% and 103%
viability, T/C (compound 1 µM): 97.1% and 101%
viability, T/C (compound 3.16 µM): 88.5% and 94.2%
viability, T/C (compound 10 µM): 48.1% and 50.1%

IC50 (curve of compound): 449 nM and 188 nM
SMILES: Nc1ccccc1NC(=O)c1ccc(CNC(=O)OCc2cccnc2)cc1
viability, T/C (compound 0.00949 µM): 107% and 112%
viability, T/C (compound 0.03 µM): 101% and 110%
viability, T/C (compound 0.0949 µM): 103% and 106%
viability, T/C (compound 0.3 µM): 74.6% and 11.2%
viability, T/C (compound 0.949 µM): 4.47% and 0.45%
viability, T/C (compound 3 µM): 0.26% and 0.16%

IC50 (curve of compound): 8 nM and < 3.16 nM
SMILES: COc1cc(Nc2ncc3c(n2)-c2ccc(Cl)cc2C(c2c(F)cccc2OC)=NC3)ccc1C(=O)O
viability, T/C (compound 0.00316 µM): 83.3% and 43.7%
viability, T/C (compound 0.01 µM): 41.7% and 44.3%
viability, T/C (compound 0.0316 µM): 40% and 40.6%
viability, T/C (compound 0.1 µM): 39.9% and 40.8%
viability, T/C (compound 0.316 µM): 37.6% and 11.2%
